# Marks after values point to notes of the source that are not given here.
# Legend:
# LDLR mRNA [1] = test: LDLR mRNA expression in HepG2 cells, quantitative real-time PCR; format: cell-based, human; settings: TQ 2 μg/ml, compared to control cells
# Apo E mRNA [2] = test: Apo E mRNA expression in rat liver, real-time PCR; settings: rat liver (in vivo), compared to the control
# Apo E mRNA [3] = test: Apo E mRNA expression in HepG2 cells, real-time PCR; format: cell-based, human; settings: HepG2 cells (in vitro), compared to the control
# Description: (§1) For the determination of mRNA expression levels of LDLR, HMG-COAR, beta actin, Apo A-1, Apo E and Apo B100 by real time PCR, HepG2 cells were plated in 6-well plates at a density of 1.8×10^5 cells/well for 24 h. The cells were incubated with 10% HLPDS for 24 h with or without adding 2 μg/ml 25OH for another 24 h. The cells were treated with TQRF at two different doses, 80 and 50 μg/ml for 24 h, and with TQ at dose of 2 μg/ml Total RNA was isolated from HepG2 cells and rats liver tissues using RiboPure RNA Isolation Kit according to the manufacturer's instructions. […] Real-time quantitative PCR was performed using the Quantict Probe Real time PCR master mix according to the manufacturer's instructions. TaqMan Primers and probes specific for LDLR and HMG-COA genes were designed using the sequence entries from GenBank (Table. 1) Database and synthesis by Integrated DNA Technologies (IDT). Human beta-actin mRNA was used as housekeeping gene, TaqMan Primers and probes specific for human beta-actin gene was synthesis by Sigma Aldrich. The probes were labeled with FAM 3′ end and the fluorophores 6FAM at 5′ end. The real-time quantitative PCR reaction for each sample was carried out in triplicate and each experiment was repeated twice. […] Analysis of gene expression data was carried out by ΔΔCT method of relative quantification, according to Kenneth, et al, (2001) (32). […]
# [4] = system: Sprague-Dawley rats fed with diets supplemented with 1% cholesterol; test: Hypocholesterolemic effect of TQRF and TQ in rats fed 1% cholesterol diet (plasma TC, LDLC); format: in vivo, rat; settings: for TC levels in experimental rats: 1% cholesterol diet
# LDLR mRNA [5] = test: LDLR mRNA expression in liver of experimental rats, quantitative real-time PCR; format: in vivo; settings: rat liver, compared with untreated rats
# Apo A-1 mRNA [6] = test: Apo A-1 mRNA expression in HepG2 cells, real-time PCR; format: cell-based, human; settings: HepG2 cells (in vitro), compared to the control
# Description: as §1
# Apo B100 mRNA [7] = test: Apo B100 mRNA expression in rat liver, real-time PCR; settings: rat liver (in vivo), compared to the control
# HMG-COAR mRNA [8] = test: HMG-COAR mRNA expression in HepG2 cells, real-time PCR; format: cell-based, human; settings: HepG2 cells (in vitro), compared to the control
# Description: as §1
# Apo B100 mRNA [9] = test: Apo B100 mRNA expression in HepG2 cells, real-time PCR; format: cell-based, human; settings: HepG2 cells (in vitro), compared to the control
# Description: as §1
# HMG-COAR mRNA [10] = test: HMG-COAR mRNA expression in rat liver, real-time PCR; settings: rat liver (in vivo), compared to the control
# Description: At the end of the experiment, all the rats were dissected and liver tissues for RNA isolation were removed, snap frozen with liquid nitrogen within approximately 2 min of death, and stored at −80° C. for gene expression study. Total RNA was isolated from HepG2 cells and rats liver tissues using RiboPure RNA Isolation Kit according to the manufacturer's instructions. […] Real-time quantitative PCR was performed using the Quantict Probe Real time PCR master mix according to the manufacturer's instructions. TaqMan Primers and probes specific for LDLR and HMG-COA genes were designed using the sequence entries from GenBank (Table. 1) Database and synthesis by Integrated DNA Technologies (IDT). Human beta-actin mRNA was used as housekeeping gene, TaqMan Primers and probes specific for human beta-actin gene was synthesis by Sigma Aldrich. The probes were labeled with FAM 3′ end and the fluorophores 6FAM at 5′ end. The real-time quantitative PCR reaction for each sample was carried out in triplicate and each experiment was repeated twice. […] Analysis of gene expression data was carried out by ΔΔCT method of relative quantification, according to Kenneth, et al, (2001) (32). […]
# hydroxyl radical = test: Hydroxyl radical scavenging activity of rat plasma by ESR; format: in vivo; settings: plasma of rats after 8 weeks of treatment, different doses
# [11] = Toxicity parameters (ALT, GGT, urea, creatinine) of plasma from experimental rats; settings: rat, in vivo
# Description: In the present invention, the in vivo (rabbit study) antioxidant activity of NSP and NSO were measured using Selectra E manufacture Vital scientific machine (UK) and with commercial kits (Randox, Crumlin, Co. Antrim, UK). The present invention provides a method of the antioxidant activity of TQRF and TQ on .OH scavenging activity using ESR in experimental rats. The present invention provided clear understanding of the molecular mechanism by which TQRF and TQ exert their lowering cholesterol property. The regulatory effect of TQRF and TQ on genes involved in cholesterol metabolism such as LDLR, HMG-COAR, Apo A-1, Apo B100 and Apo E were investigated in vitro using HepG2 cells and in vivo using Sprague-Dawley rats. The present invention also provides evidence on the safety of selective doses of TQRF, TQ, NSO and NSP by measuring the toxicity parameters including Alanine aminotransferase (ALT), Gamma-glutamyltranspeptidase (GGT), urea and creatinine of plasma collected from experimental rats and rabbits.
# Toxicity parameter including, ALT of plasma samples collected from experimental rats at baseline, middle of the treatment and the end f the treatment s were measured using analytical kit by kinetic UV assay using Roche Selectra E machine.
# Apo A-1 mRNA [12] = test: Apo A-1 mRNA expression in rat liver, real-time PCR; settings: rat liver (in vivo), compared to the control
smiles,measurement,setting,value
"CC1=CC(=O)C(C(C)C)=CC1=O [TQ, Thymoquinone]",increase of LDLR mRNA expression level,LDLR mRNA [1],two
same,Apo E mRNA expression,Apo E mRNA [2],up-regulated
same,Apo E mRNA expression,Apo E mRNA [3],up-regulated
same,TC levels in experimental rats,"[4]; TQ 1 group (20 mg/kg oral emulsion), after 4 weeks",1.49 ± 0.24 ^b mmol/l
same,TC levels in experimental rats,"[4]; TQ 1 group (20 mg/kg oral emulsion), after 8 weeks","1.48 ± 0.22 ^a, c mmol/l"
same,TC levels in experimental rats,"[4]; TQ 1 group (20 mg/kg oral emulsion), baseline",0.85 ± 0.19 mmol/L
same,TC levels in experimental rats,"[4]; TQ 2 group (50 mg/kg oral emulsion), after 4 weeks",1.47 ± 0.31 ^b mmol/l
same,TC levels in experimental rats,"[4]; TQ 2 group (50 mg/kg oral emulsion), after 8 weeks",1.01 ± 0.34 ^a mmol/l
same,TC levels in experimental rats,"[4]; TQ 2 group (50 mg/kg oral emulsion), baseline",0.97 ± 0.05 mmol/L
same,TC levels in experimental rats,"[4]; TQ 3 group (dose 20 mg/kg, oral emulsion), after 4 weeks",1.41 ± 0.48 ^b mmol/l
same,TC levels in experimental rats,"[4]; TQ 3 group (dose 20 mg/kg, oral emulsion), after 8 weeks",0.94 ± 0.30 ^a mmol/l
same,TC levels in experimental rats,"[4]; TQ 3 group (dose 20 mg/kg, oral emulsion), baseline",0.87 ± 0.26 mmol/L
same,plasma low density lipoprotein cholesterol (LDLC),"[4]; rats, different doses for 8 weeks, compared to controlled group",significant decrease
same,increase of LDLR mRNA level,LDLR mRNA [5]; TQ 20 mg/kg body weight,two
same,increase of LDLR mRNA level,LDLR mRNA [5]; TQ 100 mg/kg body weight,seven
same,Apo A-I mRNA expression,Apo A-1 mRNA [6],up-regulated
same,Apo B100 mRNA expression,Apo B100 mRNA [7],down-regulated
same,HMG-COAR mRNA expression,HMG-COAR mRNA [8],down-regulated
same,Apo B100 mRNA expression,Apo B100 mRNA [9],down-regulated
same,HMG-COAR mRNA expression,HMG-COAR mRNA [10],down-regulated
same,hydroxyl radical scavenging activity of plasma (ESR),hydroxyl radical,able to directly scavenge .OH
same,"toxicity (hepatic and kidney enzyme stability, organ integrity)",[11],non toxic
same,Apo A-I mRNA expression,Apo A-1 mRNA [12],up-regulated

# Source: patent publication US20110244060A1, “CARDIOPROTECTIVE EFFECTS OF NUTRACEUTICALS ISOLATED FROM NIGELLA SATIVA SEEDS” (UNIVERSITI PUTRA MALAYSIA, priority 2008, published 2011)
